In paper PMC10930102 (Journal of Enzyme Inhibition and Medicinal Chemistry, 2024):
Entries after “also recorded” stand apart in the source; their conditions may differ.

Key:
HDAC1 = biological target: T1, HDAC1 (Homo sapiens, UniProt Q13547); test: HDAC inhibition assay (fluorogenic peptide, Reaction Biology); format: biochemical; settings: tested once, ten-dose starting at 30 µM
T1 construct: purchased Reaction Biology Corporation; host or cells: baculovirus expression system in SF9 cells

HDAC8 = biological target: T2, HDAC8 (Homo sapiens, UniProt Q9BY41); test: HDAC inhibition assay (fluorogenic diacylpeptide, Reaction Biology); format: biochemical; settings: tested once, ten-dose starting at 30 µM
T2 construct: purchased Reaction Biology Corporation; host or cells: baculovirus expression system in SF9 cells
T2 sequence (Q9BY41 1-377): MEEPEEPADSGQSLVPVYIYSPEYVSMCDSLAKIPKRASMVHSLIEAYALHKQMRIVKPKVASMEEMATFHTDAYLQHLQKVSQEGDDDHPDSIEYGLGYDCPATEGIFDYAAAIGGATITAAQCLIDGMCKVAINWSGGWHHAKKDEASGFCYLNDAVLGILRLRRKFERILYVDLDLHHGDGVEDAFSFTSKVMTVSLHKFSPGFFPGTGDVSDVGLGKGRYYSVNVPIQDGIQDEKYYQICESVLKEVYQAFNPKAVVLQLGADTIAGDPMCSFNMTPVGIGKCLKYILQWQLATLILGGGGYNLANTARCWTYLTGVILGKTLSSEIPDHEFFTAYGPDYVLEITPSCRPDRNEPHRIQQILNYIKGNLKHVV

HepG2 = test: SRB antiproliferation assay; format: cell-based; settings: Homo sapiens, 48 h, read-out: Antiproliferative activity (IC50) HepG2
EGFR = biological target: T3, EGFR (Homo sapiens, UniProt P00533); test: RTK in vitro enzymatic assay; format: biochemical; settings: 20 μM ATP
T3 construct: purchased Reaction Biology Corporation

c-Met = biological target: T4, c-Met (Homo sapiens, UniProt P08581); test: RTK in vitro enzymatic assay; format: biochemical; settings: 20 μM ATP
T4 construct: purchased Reaction Biology Corporation

c-Src = biological target: T5, c-Src (Homo sapiens, UniProt P12931); test: RTK in vitro enzymatic assay; format: biochemical; settings: 20 μM ATP
T5 construct: purchased Reaction Biology Corporation

JAK2 = biological target: T6, JAK2 (Homo sapiens, UniProt O60674); test: RTK in vitro enzymatic assay; format: biochemical; settings: 20 μM ATP
T6 construct: purchased Reaction Biology Corporation

ALK C1156Y = biological target: T7, ALK C1156Y (Homo sapiens, UniProt Q9UM73, C1156Y); test: ALK mutant in vitro enzymatic assay; format: biochemical; settings: 20 μM ATP
T7 construct: purchased Reaction Biology Corporation

ALK F1174L = biological target: T8, ALK F1174L (Homo sapiens, UniProt Q9UM73, F1174L); test: ALK mutant in vitro enzymatic assay; format: biochemical; settings: 20 μM ATP
T8 construct: purchased Reaction Biology Corporation

[1] = tested on: acetylation level of α-tubulin, a substrate of HDAC6; test: Western blot of acetylated α-tubulin in H2228 cells; format: cell-based, human; settings: 6 h, 3b 2 µM
Text: (§1) Figure 4. Effect of test compounds on H2228 cells. […] (A) Western blots of phosphorylated tyrosine residue 1640 on ALK as well as acetylated (Ac) α-tubulin and histone H3 with their corresponding total proteins for normalisation. GAPDH was used as a loading control. (B) Quantification of western blotting results using Image J. Error bars indicate ± S.D.E. *p-Value ≤ 0.05, **p-value ≤ 0.01, ***p-value ≤ 0.001.
(§2) Treated cells were washed three times with ice-cold phosphate-buffered saline and lysed in lysis buffer containing 100 mM Tris-HCl, 12 mM sodium deoxycholate, 12 mM sodium lauroylsarcosinate, and protease inhibitor cocktail (BioTools). Cells were heated in lysis buffer at 95 °C for 5 min and then the cell membrane was broken up by sonication (Bioruptor). Cellular debris and unbroken cells were removed by centrifugation (12,500 × g for 30 min, 4 °C). Protein concentration was determined using the bicinchoninic acid assay (Thermo). Cell extracts (20 μg) were resolved by 12% sodium dodecyl sulfate-polyacrylamide gel electrophoresis (SDS-PAGE), transferred to PVDF membranes, and probed separately with antibodies for Ac-histone H3, Ac-α-tubulin, histone H3, α-tubulin, HDAC1, HDAC6, HDAC8 and GAPDH. […] Antibody signals were detected using an enhanced chemiluminescence system.

[2] = tested on: acetylated histone H3, a substrate of class I HDAC; test: Western blot of acetylated histone H3 in H2228 cells; format: cell-based, human; settings: 6 h, 3b 2 µM
Text: as §1, §2

[3] = tested on: human A549 tumour xenografts; test: Human A549 tumour xenograft model; format: in vivo
Protocol: […]. Xenografts were implanted by subcutaneous injection of A549 cells and then treatment with various dosages of 3b (0, 5, 10, 20 mg/kg by intraperitoneal injection once daily for 21 days) was initiated when tumour size was 10–20 mm^3. […] Moreover, tumour suppression continued for an additional 10 days after treatment was suspended.
The procedure for establishing tumour xenografts and the dosing of 3b were carried out in accordance with the National Taiwan University College of Medicine Laboratory Animal Centre ([…]) care and use committee. Female nude mice (BALB/cAnN.Cg-Foxn1nu/CrlNarl, 6–8 weeks old) were purchased from the National Laboratory Animal Centre (Taiwan). Mice were implanted subcutaneously in the right flank with 1 × 10^7 A549 cells (human NSCLC, in 1:1 PBS/Geltrex, 200 μL). Treatments were initiated when tumours were 10–20 mm^3 and continued for 21 consecutive days. Mice were randomly assigned to cohorts (n = 5 per group). Compound 3b (10 mg/kg) or vehicle (PBS + 5% DMSO + 10% Pharmasolve) was administered once daily (qd) via intraperitoneal (i.p.) injection. Tumour volume and body weight were assessed daily for 31 days from initiation of treatment. Calliper measurements of tumours were converted to mean tumour volume using the formula: 0.5 × (length × width[2]).

CYP1A2 = biological target: T9, CYP1A2 (Homo sapiens, UniProt P05177); test: CYP450 inhibition assay; format: in vitro ADME; settings: human recombinant enzyme; read-out: IC50 CYP1A2
T9 construct: purchased Reaction Biology Corporation; host or cells: CYP cDNA baculovirus expression systems

CYP2C9 = biological target: T10, CYP2C9 (Homo sapiens, UniProt P11712); test: CYP450 inhibition assay; format: in vitro ADME; settings: human recombinant enzyme
T10 construct: purchased Reaction Biology Corporation; host or cells: CYP cDNA baculovirus expression systems

CYP3A4 = biological target: T11, CYP3A4 (Homo sapiens, UniProt P08684); test: CYP450 inhibition assay; format: in vitro ADME; settings: human recombinant enzyme
T11 construct: purchased Reaction Biology Corporation; host or cells: CYP cDNA baculovirus expression systems
T11 sequence (P08684 whole entry): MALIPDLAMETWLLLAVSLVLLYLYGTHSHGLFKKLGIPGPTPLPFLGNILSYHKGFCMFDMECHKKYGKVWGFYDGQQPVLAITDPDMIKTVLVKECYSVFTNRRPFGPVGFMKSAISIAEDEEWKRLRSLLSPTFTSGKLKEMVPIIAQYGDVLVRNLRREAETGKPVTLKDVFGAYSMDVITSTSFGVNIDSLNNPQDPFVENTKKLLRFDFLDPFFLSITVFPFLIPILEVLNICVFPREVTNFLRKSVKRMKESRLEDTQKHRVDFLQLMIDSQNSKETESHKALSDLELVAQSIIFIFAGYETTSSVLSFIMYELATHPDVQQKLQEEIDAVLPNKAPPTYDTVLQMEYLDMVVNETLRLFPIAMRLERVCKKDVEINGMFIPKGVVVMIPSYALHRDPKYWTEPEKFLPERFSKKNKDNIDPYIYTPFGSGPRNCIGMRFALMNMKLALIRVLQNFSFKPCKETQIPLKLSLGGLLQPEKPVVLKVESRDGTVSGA

T9 sequence (P05177 whole entry): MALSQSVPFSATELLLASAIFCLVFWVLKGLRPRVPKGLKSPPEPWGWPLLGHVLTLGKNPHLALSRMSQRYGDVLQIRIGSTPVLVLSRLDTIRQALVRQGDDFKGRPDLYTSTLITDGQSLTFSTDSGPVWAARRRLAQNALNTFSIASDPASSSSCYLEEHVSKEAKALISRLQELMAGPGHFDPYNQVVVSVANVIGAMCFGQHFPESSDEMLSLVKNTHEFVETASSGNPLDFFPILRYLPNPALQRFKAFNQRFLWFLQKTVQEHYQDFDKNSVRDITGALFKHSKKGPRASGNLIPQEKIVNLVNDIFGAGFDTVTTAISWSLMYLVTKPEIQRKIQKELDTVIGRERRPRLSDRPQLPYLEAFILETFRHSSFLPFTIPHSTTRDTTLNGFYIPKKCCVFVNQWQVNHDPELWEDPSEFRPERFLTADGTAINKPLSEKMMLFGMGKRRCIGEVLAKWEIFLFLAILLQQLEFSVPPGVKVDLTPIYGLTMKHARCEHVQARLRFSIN
T8 sequence (Q9UM73 19-1620 F1174L): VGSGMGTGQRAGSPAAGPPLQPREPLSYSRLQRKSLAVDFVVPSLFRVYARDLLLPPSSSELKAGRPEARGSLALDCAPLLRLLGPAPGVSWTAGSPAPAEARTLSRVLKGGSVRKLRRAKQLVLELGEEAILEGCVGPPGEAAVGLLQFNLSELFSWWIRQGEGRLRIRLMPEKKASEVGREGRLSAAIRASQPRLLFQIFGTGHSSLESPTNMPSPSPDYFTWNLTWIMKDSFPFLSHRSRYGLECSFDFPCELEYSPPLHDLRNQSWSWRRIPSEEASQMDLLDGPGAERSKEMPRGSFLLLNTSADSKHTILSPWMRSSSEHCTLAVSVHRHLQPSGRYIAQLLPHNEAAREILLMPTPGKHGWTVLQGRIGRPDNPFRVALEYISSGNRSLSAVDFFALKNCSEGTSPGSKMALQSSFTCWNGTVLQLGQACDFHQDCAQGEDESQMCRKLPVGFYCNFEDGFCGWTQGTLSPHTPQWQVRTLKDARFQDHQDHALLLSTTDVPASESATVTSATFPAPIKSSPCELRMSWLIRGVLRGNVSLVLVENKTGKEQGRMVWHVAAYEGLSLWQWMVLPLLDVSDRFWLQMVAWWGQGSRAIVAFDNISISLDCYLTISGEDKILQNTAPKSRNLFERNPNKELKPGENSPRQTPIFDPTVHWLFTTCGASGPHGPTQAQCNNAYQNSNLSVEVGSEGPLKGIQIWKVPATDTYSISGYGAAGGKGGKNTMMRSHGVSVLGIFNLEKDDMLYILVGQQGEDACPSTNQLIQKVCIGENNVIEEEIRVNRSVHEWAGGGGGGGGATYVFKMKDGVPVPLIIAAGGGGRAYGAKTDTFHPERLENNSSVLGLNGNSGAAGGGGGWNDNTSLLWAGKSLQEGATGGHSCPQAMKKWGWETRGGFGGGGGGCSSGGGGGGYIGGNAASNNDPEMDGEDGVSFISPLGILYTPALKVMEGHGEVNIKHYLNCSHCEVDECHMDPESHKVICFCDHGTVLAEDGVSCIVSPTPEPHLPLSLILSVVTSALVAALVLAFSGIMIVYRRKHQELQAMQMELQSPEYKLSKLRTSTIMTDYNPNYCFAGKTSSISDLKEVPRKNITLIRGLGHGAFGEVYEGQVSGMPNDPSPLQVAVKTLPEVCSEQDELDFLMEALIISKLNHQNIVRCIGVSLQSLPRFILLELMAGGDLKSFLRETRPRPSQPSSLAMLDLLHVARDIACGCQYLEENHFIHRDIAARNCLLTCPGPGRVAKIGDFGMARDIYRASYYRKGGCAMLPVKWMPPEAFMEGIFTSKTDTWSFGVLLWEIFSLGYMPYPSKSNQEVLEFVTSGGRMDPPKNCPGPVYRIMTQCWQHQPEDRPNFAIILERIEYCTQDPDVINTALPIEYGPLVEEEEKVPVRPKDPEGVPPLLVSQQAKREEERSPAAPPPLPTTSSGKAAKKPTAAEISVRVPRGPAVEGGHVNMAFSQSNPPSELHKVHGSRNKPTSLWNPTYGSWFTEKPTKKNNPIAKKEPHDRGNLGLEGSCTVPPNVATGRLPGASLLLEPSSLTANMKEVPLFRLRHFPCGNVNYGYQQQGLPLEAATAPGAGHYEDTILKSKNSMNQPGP
T7 sequence (Q9UM73 19-1620 C1156Y): as the sequence (Q9UM73 19-1620 F1174L) above, with C1138Y, L1156F counted along it
T3 sequence (P00533 25-1210): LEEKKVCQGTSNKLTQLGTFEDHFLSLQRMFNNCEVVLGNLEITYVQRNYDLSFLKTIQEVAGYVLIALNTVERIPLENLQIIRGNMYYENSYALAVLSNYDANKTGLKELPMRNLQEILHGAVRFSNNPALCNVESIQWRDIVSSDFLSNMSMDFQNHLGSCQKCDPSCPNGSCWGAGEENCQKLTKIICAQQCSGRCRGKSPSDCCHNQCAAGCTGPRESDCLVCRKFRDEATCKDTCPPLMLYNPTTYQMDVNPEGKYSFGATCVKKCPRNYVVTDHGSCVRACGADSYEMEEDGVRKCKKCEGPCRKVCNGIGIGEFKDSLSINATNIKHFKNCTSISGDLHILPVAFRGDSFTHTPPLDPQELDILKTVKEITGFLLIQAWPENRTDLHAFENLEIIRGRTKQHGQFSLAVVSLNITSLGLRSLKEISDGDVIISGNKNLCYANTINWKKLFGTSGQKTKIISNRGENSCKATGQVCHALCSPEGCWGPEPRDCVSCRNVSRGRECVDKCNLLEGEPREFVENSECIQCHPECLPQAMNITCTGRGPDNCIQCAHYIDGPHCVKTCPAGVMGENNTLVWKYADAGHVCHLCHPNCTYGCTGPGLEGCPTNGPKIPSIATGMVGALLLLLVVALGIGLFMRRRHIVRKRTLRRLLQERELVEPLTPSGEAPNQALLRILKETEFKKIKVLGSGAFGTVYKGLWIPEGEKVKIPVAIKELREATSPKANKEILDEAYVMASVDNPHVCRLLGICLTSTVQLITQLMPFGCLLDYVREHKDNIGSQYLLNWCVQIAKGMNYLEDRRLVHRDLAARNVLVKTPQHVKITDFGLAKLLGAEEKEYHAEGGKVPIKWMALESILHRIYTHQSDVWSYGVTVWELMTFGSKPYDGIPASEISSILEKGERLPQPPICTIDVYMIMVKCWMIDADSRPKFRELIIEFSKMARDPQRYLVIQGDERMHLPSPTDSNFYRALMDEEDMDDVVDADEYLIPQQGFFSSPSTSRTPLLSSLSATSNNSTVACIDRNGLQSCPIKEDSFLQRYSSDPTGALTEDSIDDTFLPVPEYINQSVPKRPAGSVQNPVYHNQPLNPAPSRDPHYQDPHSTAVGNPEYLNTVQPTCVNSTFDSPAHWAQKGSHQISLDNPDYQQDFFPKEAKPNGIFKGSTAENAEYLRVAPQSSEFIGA
T5 sequence (P12931 whole entry): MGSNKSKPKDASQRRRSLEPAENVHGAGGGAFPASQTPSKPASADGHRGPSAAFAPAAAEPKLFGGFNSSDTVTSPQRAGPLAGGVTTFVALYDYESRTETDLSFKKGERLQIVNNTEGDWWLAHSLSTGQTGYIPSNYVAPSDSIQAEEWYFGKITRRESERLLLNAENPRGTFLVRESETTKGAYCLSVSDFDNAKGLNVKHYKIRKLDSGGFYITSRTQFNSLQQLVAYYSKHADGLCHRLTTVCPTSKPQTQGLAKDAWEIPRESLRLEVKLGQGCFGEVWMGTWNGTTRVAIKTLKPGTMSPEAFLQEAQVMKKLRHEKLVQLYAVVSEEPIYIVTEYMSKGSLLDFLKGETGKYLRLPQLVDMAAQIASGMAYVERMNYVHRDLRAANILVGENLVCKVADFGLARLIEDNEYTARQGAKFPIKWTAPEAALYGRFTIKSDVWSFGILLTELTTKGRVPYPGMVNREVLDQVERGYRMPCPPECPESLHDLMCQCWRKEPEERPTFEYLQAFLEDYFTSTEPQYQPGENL
T10 sequence (P11712 whole entry): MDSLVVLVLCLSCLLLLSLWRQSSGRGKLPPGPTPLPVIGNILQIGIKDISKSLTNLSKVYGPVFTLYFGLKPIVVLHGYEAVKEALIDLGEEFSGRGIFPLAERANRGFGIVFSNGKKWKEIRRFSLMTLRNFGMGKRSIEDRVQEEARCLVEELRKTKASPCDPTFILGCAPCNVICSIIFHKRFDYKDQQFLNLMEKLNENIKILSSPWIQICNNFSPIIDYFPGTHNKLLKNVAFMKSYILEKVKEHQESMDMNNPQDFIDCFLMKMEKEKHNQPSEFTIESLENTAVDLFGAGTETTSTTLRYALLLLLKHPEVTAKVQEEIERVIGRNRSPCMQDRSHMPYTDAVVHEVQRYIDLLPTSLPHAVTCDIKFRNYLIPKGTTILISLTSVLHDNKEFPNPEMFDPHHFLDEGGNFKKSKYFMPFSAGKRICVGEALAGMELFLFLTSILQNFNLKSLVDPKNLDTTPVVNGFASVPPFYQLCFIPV

CC(C)NC(=O)C1CCC(n2c(=NC(=O)c3ccccc3)[nH]c3cc(C=CC(=O)NO)ccc32)CC1 [Compound 3b, (E)-N-(5-((E)-3-(Hydroxyamino)-3-oxoprop-1-en-1-yl)-1-((1S,4S)-4-(isopropylcarbamoyl)cyclohexyl)-1H-benzo[d]imidazol-2(3H)-ylidene)benzamide]
IC50 (HDAC1): 10.8 µM
IC50 (HDAC8): 1.69 µM
IC50 (HepG2): 0.59 ± 0.09 µM
IC50 (EGFR): > 10 µM
IC50 (c-Met): > 10 µM
IC50 (c-Src): 3.38 µM
IC50 (JAK2): > 10 µM
IC50 (ALK C1156Y): 0.0097 µM
IC50 (ALK F1174L): 0.059 µM
acetylation level of α-tubulin [1]: obviously elevated
acetylated histone H3 level [2]: slightly increased
effect on tumour volume ([3]; 5 mg/kg i.p. once daily for 21 days): no significant effect
decrease in mean tumour volume ([3]; 10 mg/kg i.p. once daily for 21 days, day 21 of treatment): 68%
decrease in mean tumour volume ([3]; 10 mg/kg i.p. once daily for 21 days, day 31 (10 days after treatment suspended)): 80%
decrease in mean tumour volume ([3]; 20 mg/kg i.p. once daily for 21 days, day 21 of treatment): 85%
decrease in mean tumour volume ([3]; 20 mg/kg i.p. once daily for 21 days, day 31 (10 days after treatment suspended)): 86%
mean body weight ([3]; 5, 10, 20 mg/kg i.p. once daily for 21 days, any treatment group): negligible effect; also recorded: not significantly affected
IC50 (CYP1A2): 12.7 µM
IC50 (CYP2C9): 2.65 µM
IC50 (CYP3A4): 9.37 µM
